Assays:
[1] = molecular target: T1, AtGSTU19 (Arabidopsis thaliana, UniProt Q9ZRW8); experiment: UPLC-qTOF MS initial velocities, Michaelis-Menten non-linear regression; format: biochemical; details: co-substrate glutathione; unit printed as µmol (amount, not concentration)
T1 construct: gene GSTU19
Excerpt: UPLC-qTOF MS initial velocities, Michaelis-Menten non-linear regression on AtGSTU19

[2] = molecular target: T2, AtGSTU7 (Arabidopsis thaliana, UniProt Q9ZW24); experiment: as above; format: biochemical; details: co-substrate glutathione; unit printed as µmol (amount, not concentration)
T2 construct: gene GSTU7
T2 sequence (Q9ZW24 1-227): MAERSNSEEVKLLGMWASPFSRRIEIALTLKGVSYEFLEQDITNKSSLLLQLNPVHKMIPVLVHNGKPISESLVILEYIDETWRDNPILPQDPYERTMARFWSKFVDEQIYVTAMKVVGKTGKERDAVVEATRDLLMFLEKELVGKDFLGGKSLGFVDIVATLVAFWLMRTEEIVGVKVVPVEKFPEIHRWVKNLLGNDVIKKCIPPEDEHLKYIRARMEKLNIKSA
Excerpt: UPLC-qTOF MS initial velocities, Michaelis-Menten non-linear regression on AtGSTU7

T1 sequence (Q9ZRW8 whole entry): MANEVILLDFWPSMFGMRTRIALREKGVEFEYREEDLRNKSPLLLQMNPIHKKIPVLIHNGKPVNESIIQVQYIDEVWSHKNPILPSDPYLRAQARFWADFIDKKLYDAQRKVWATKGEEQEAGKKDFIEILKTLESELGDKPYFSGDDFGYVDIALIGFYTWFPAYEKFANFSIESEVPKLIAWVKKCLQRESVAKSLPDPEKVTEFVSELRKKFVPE

Q: How did the “Km” value [1] turn out when `CC(C)N(C(=O)COc1nnc(C(F)(F)F)s1)c1ccc(F)cc1` [flufenacet] was run?
A: The value was 95.08 µmol.

Q: What about the “Km” value [2] of the same compound?
A: Its value is 109.57 µmol.

— article PMC10822893, “Selective herbicide safening in dicot plants: a case study in Arabidopsis” (Frontiers in Plant Science, 2024)
